Measured values as given in patent US9586931B2 (Merck Sharp & Dohme Corp., priority 2012, dated 2017).

The molecules below were run against T1, recombinant human GST-Syk (Homo sapiens, UniProt P43405) (assay: Homogeneous Time-Resolved Fluorescence (HTRF) assay for the recombinant human Syk enzyme). Conditions: recombinant human GST-Syk 5 pM, ATP 25 μM, 10-dose titration 10 μM to 0.508 nM; read-out: rhSYK Activity IC50.
T1 construct: purchased Carna Biosciences 08-176
Format: biochemical
Procedure, shortened: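 GST-hSyk fusion protein phosphorylated a peptide for 45 min at room temperature. The reaction was quenched with 2 nM Eu-anti-phosphotyrosine antibody and 70 nM SA-APC in 15 mM Tris pH 7.5, 40 mM EDTA, 0.01% Tween 20. The HTRF signal was read after 30 min.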

| SMILES | IC50 [nM] |
| --- | --- |
| Cc1cc(Nc2cc(C(F)(F)F)ccn2)nc(-c2cn(CS(N)(=O)=O)nn2)c1 [Example 5.107, 1-[4-(4-methyl-6-{[4-(trifluoromethyl)pyridin-2-yl]amino}pyridin-2-yl)-1H-1,2,3-triazol-1-yl]methanesulfonamide] | 5.1 |
| Cc1cc(Nc2cc(C(F)(F)F)ccn2)nc(-c2cn([C@@H](C)C(N)=O)nn2)c1 [Example 1.24, (2S)-2-[4-(4-methyl-6-{[4-(trifluoromethyl)pyridin-2-yl]amino}pyridin-2-yl)-1H-1,2,3-triazol-1-yl]propanamide] | 14.2 |
| Cc1cc(Nc2cc(C(F)(F)F)ccn2)nc(-c2cn(CC(C)(C)O)nn2)c1 [Example 5.97, 2-methyl-1-[4-(4-methyl-6-{[4-(trifluoromethyl)pyridin-2-yl]amino}pyridin-2-yl)-1H-1,2,3-triazol-1-yl]propan-2-ol] | 15 |
| Cc1cc(Nc2cc(C(F)(F)F)ccn2)nc(-c2cn(C(C)C(=O)N3CCC(c4ccncc4)C3)nn2)c1 (centres unmarked) [Example 1.53, 4-methyl-6-{1-[1-methyl-2-oxo-2-(3-pyridin-4-ylpyrrolidin-1-yl)ethyl]-1H-1,2,3-triazol-4-yl}-N-[4-(trifluoromethyl)pyridin-2-yl]pyridin-2-amine] | 34.7 |
| COCC(O)Cn1cc(-c2cc(C)cc(Nc3cc(C(F)(F)F)ccn3)n2)nn1 (centres unmarked) [Example 4.23, 1-methoxy-3-[4-(4-methyl-6-{[4-(trifluoromethyl)pyridin-2-yl]amino}pyridin-2-yl)-1H-1,2,3-triazol-1-yl]propan-2-ol] | 5.4 |
| Cc1ccnc(Nc2cc(C)cc(-c3cn(C[C@H](O)CC#N)nn3)n2)c1 [Example 5.14, (3R)-3-hydroxy-4-(4-{4-methyl-6-[(4-methylpyridin-2-yl)amino]pyridin-2-yl}-1H-1,2,3-triazol-1-yl)butanenitrile] | 23.4 |
| Cc1cc(Nc2cc(C(F)(F)F)ccn2)nc(-c2cn(C(C)C(=O)NCC3(c4ccc(F)cc4)CCOCC3)nn2)c1 (centres unmarked) [Example 1.49, N-{[4-(4-fluorophenyl)tetrahydro-2H-pyran-4-yl]methyl}-2-[4-(4-methyl-6-{[4-(trifluoromethyl)pyridin-2-yl]amino}pyridin-2-yl)-1H-1,2,3-triazol-1-yl]propanamide] | 404 |
| Cc1cc(Nc2cc(C(F)F)ccn2)nc(-c2cn(CC3OC(=O)NC3C)nn2)c1 (single isomer, unassigned) [Example 7.14, 5-((4-(6-((4-(difluoromethyl)pyridin-2-yl)amino)-4-methylpyridin-2-yl)-1H-1,2,3-triazol-1-yl)methyl)-4-methyloxazolidin-2-one] | 1.6 |
| Cc1cc(Nc2cc(C(F)(F)F)ccn2)nc(-c2cn(-c3ccc(C(=O)O)cc3)nn2)c1 [Example 7.1, 4-(4-(4-Methyl-6-((4-(trifluoromethyl)pyridin-2-yl)amino)pyridin-2-yl)-1H-1,2,3-triazol-1-yl)benzoic acid] | 11.1 |
| Cc1cc(Nc2cc(C(C)C)ccn2)nc(-c2cn(C(C)c3ccc(C(=O)O)cc3)nn2)c1 (centres unmarked) [Example 2.13, 4-{1-[4-(4-methyl-6-{[4-(1-methylethyl)pyridin-2-yl]amino}pyridin-2-yl)-1H-1,2,3-triazol-1-yl]ethyl}benzoic acid] | 8.4 |
| Cc1cc(Nc2cc(C(F)(F)F)ccn2)nc(-c2cn(C3CCC(C(N)=O)C(C)(C)C3)nn2)c1 (single isomer, unassigned) [Example 1.8, 2,2-dimethyl-4-[4-(4-methyl-6-{[4-(trifluoromethyl)pyridin-2-yl]amino}pyridin-2-yl)-1H-1,2,3-triazol-1-yl]cyclohexanecarboxamide] | 5.8 |
| COc1ccc2[nH]c3c(c2c1)CCN(C(=O)C(C)n1cc(-c2cc(C)cc(Nc4cc(C(F)(F)F)ccn4)n2)nn1)C3 (stereo not drawn) [Example 1.48, 6-{1-[2-(6-methoxy-1,3,4,9-tetrahydro-2H-beta-carbolin-2-yl)-1-methyl-2-oxoethyl]-1H-1,2,3-triazol-4-yl}-4-methyl-N-1.[4-(trifluoromethyl)pyridin-2-yl]pyridin-2-amine] | 257 |
| Cc1cc(Nc2cc(C(F)(F)F)ccn2)nc(-c2cn(C[C@H]3CNC(=O)O3)nn2)c1 [Example 5.102, (5R)-5-{[4-(4-methyl-6-{[4-(trifluoromethyl)pyridin-2-yl]amino}pyridin-2-yl)-1H-1,2,3-triazol-1-yl]methyl}-1,3-oxazolidin-2-one] | 1.1 |
| Cc1cc(Nc2cc(C(F)(F)F)ccn2)nc(-c2cn(C(C)C(=O)NCc3c(-c4ccccc4)noc3C)nn2)c1 (centres unmarked) [Example 1.47, N-[(5-methyl-3-phenylisoxazol-4-yl)methyl]-2-[4-(4-methyl-6-{[4-(trifluoromethyl)pyridin-2-yl]amino}pyridin-2-yl)-1H-1,2,3-triazol-1-yl]propanamide] | 345 |
| Cc1cc(Nc2nccc(C(F)F)n2)cc(-c2cn(CC3OC(=O)NC3C)nn2)c1 (single isomer, unassigned) [Example 7.7, 5-((4-(3-((4-(difluoromethyl)pyrimidin-2-yl)amino)-5-methylphenyl)-1H-1,2,3-triazol-1-yl)methyl)-4-methyloxazolidin-2-one] | 9.9 |
| Cc1cc(Nc2cc(C(F)(F)F)ccn2)nc(-c2cn(CC3(O)CCS(=O)(=O)CC3)nn2)c1 [Example 4.29, 4-{[4-(4-methyl-6-{[4-(trifluoromethyl)pyridin-2-yl]amino}pyridin-2-yl)-1H-1,2,3-triazol-1-yl]methyl}tetrahydro-2H-thiopyran-4-ol 1,1-dioxide] | 8.2 |
| Cc1cc(Nc2cc(C(F)(F)F)ccn2)nc(-c2cn(C[C@H]3CCC(=O)N3)nn2)c1 [Example 5.3, (5R)-5-{[4-(4-methyl-6-{[4-(trifluoromethyl)pyridin-2-yl]amino}pyridin-2-yl)-1H-1,2,3-triazol-1-yl]methyl}pyrrolidin-2-one] | 129 |
| Cc1cc(Nc2nccc(C(F)(F)F)n2)cc(-c2cn(CC#N)nn2)c1 [Example 5.78, [4-(3-methyl-5-{[4-(trifluoromethyl)pyrimidin-2-yl]amino}phenyl)-1H-1,2,3-triazol-1-yl]acetonitrile] | 84.1 |
| Cc1cc(Nc2nccc(C(F)F)n2)cc(-c2cn(CC3OC(=O)NC34CC4)nn2)c1 (single isomer, unassigned) [Example 7.17, 7-((4-(3-((4-(difluoromethyl)pyrimidin-2-yl)amino)-5-methylphenyl)-1H-1,2,3-triazol-1-yl)methyl)-6-oxa-4-azaspiro[2.4]heptan-5-one] | 1.1 |

Now from value to molecule:

| IC50 [nM] | SMILES |
| --- | --- |
| 12.5 | Cc1cc(Nc2nccc(C(F)(F)F)n2)cc(-n2cc([C@]3(O)CC[C@@H](C(=O)O)CC3)nn2)c1 [Example 15.4, cis-4-hydroxy-4-[1-(3-methyl-5-{[4-(trifluoromethyl)pyrimidin-2-yl]amino}phenyl)-1H-1,2,3-triazol-4-yl]cyclohexanecarboxylic acid] |
| 19.7 | Cc1cc(Nc2nccc(C(F)F)n2)cc(-c2cn(CC(C)(O)CC#N)nn2)c1 (single isomer, unassigned) [Example 27.1, 4-(4-(3-((4-(difluoromethyl)pyrimidin-2-yl)amino)-5-methylphenyl)-1H-1,2,3-triazol-1-yl)-3-hydroxy-3-methylbutanenitrile] |
| 23.1 | Cc1cc(Nc2cc(C(C)F)ccn2)nc(-c2cn(CC(C)(O)C(C)(C)O)nn2)c1 (centres unmarked) [Example 21.17, 1-[4-(6-{[4-(1-fluoroethyl)pyridin-2-yl]amino}-4-methylpyridin-2-yl)-1H-1,2,3-triazol-1-yl]-2,3-dimethylbutane-2,3-diol] |
| 41.5 | COc1nc(Nc2cc(C)cc(-c3cn(CC(C)(O)C(C)(C)O)nn3)c2)ncc1Cl (centres unmarked) [Example 21.27, 1-(4-{3-[(5-chloro-4-methoxypyrimidin-2-yl)amino]-5-methylphenyl}-1H-1,2,3-triazol-1-yl)-2,3-dimethylbutane-2,3-diol] |
| 10.5 | Cc1cc(Nc2cc(C(F)(F)F)ccn2)nc(-c2cn(C3CN(C(=O)C(C)O)CC3O)nn2)c1 (single isomer, unassigned) [Example 13.3, 1-[2-hydroxypropanoyl]-4-[4-(4-methyl-6-{[4-(trifluoromethyl)pyridin-2-yl]amino}pyridin-2-yl)-1H-1,2,3-triazol-1-yl]pyrrolidin-3-ol] |
| 85.6 | Cc1cc(Nc2cc(C)c(F)cn2)nc(-c2cn(CC(C)(O)C(C)(C)O)nn2)c1 (centres unmarked) [Example 21.29, 1-(4-{6-[(5-fluoro-4-methylpyridin-2-yl)amino]-4-methylpyridin-2-yl}-1H-1,2,3-triazol-1-yl)-2,3-dimethylbutane-2,3-diol] |
| 179 | COC(=O)[C@H]1CC[C@](O)(c2cn(-c3cc(C)cc(Nc4nccc(C(F)(F)F)n4)c3)nn2)CC1(C)C [Example 15.10, methyl (1S,4R)-4-hydroxy-2,2-dimethyl-4-[1-(3-methyl-5-{[4-(trifluoromethyl)pyrimidin-2-yl]amino}phenyl)-1H-1,2,3-triazol-4-yl]cyclohexanecarboxylate] |
| 8.1 | Cc1cc(Nc2cc(C(F)F)ccn2)nc(-c2cn(CC(C)(O)C(C)(C)O)nn2)c1 (centres unmarked) [Example 21.36, 1-[4-(6-{[4-(difluoromethyl)pyridin-2-yl]amino}-4-methylpyridin-2-yl)-1H-1,2,3-triazol-1-yl]-2,3-dimethylbutane-2,3-diol] |
| 8.1 | Cc1cc(Nc2cc(C(F)(F)F)ccn2)nc(-c2cn([C@H](C)c3ccc(C(=O)O)cc3)nn2)c1 [Example 9.5, 4-{(1R)-1-[4-(4-methyl-6-{[4-(trifluoromethyl)-pyridin-2-yl]amino}pyridin-2-yl)-1H-1,2,3-triazol-1-yl]ethyl}benzoic acid] |
| 79.6 | Cc1cc(Nc2nccc(C(F)(F)F)n2)cc(-n2cc(CCC(=O)O)nn2)c1 [Example 15.14, 3-[1-(3-methyl-5-{[4-(trifluoromethyl)pyrimidin-2-yl]amino}phenyl)-1H-1,2,3-triazol-4-yl]propanoic acid] |
